Measurements from US9242939B2, “Compositions and methods for the treatment of respiratory disorders” (CELLIX BIO PRIVATE LIMITED, priority 2012, dated 2016).

What was measured:
Type in all cases: in vivo, Wistar-Kyoto (WKY) rats
[1] = test system: CCI rats; test: Motor deficits or sedation judged by gait and overall appearance; settings: 15 mg/kg DM or equivalent, intraperitoneally once daily for a week
Procedure: (§1) The drugs DM (15 mg/kg for DM) or the formula I (1-1) (15 mg/kg equivalent of DM) was given intraperitoneally once daily for a week, beginning in the second week after CCI (i.e., day 8 after CCI).

[2] = test system: CCI rats; test: Thermal hyperalgesia in CCI (sciatic nerve ligation) neuropathic pain rats; settings: 15 mg/kg DM or 15 mg/kg equivalent of DM, intraperitoneally once daily for a week from day 8 after CCI; examined on day 15 after CCI; compared with corresponding baseline
Procedure: (§2) Adult male WKY rats weighing 200-250 g. Rats were housed individually in each cage and the experiments started at least three days after their arrival. The surgical procedure was performed under pentobarbital anesthesia (50 mg/kg, intraperitoneally). CCI rats were produced by loosely ligating the common sciatic nerve on one side according to the method. Briefly, the right sciatic nerve was exposed in themid-thigh and separated from the adjacent tissue. Four loose ligatures using 4-0 chromic gut sutures were made around the dissected nerve with a 1.0-1.5 mm interval between each pair of ligatures. The skin wound was closed using stainless steel pins. In sham rats, the same surgical procedure was followed except for nerve ligation. DM and formula I (1-1) were diluted in 10% DMSO. The MDSO (10%) was also used for vehicle control.
as §1

[3] = test system: CCI rats; test: Mechanical allodynia in CCI (sciatic nerve ligation) neuropathic pain rats; settings: 15 mg/kg DM or 15 mg/kg equivalent of DM, intraperitoneally once daily for a week from day 8 after CCI; examined at end of one-week treatment; compared with corresponding baseline
Procedure: as §2, §1

With COc1ccc2c(c1)[C@]13CCCC[C@@H]1[C@H](C2)N(C)CC3 [DM, Dextromethorphan] the “motor deficits or sedation” value [1] was “no motor deficits or sedation”, the reducing thermal hyperalgesia [2] was “only marginally effective” and the reducing mechanical allodynia [3] was “effective only in reducing mechanical allodynia”.
For CN1CC[C@@]23CCCC[C@@H]2[C@@H]1Cc1ccc(OC(=O)CCCCCC[C@]2(C)CCSS2)cc13 [formula I (1-1)], the “motor deficits or sedation” value [1] was “no motor deficits or sedation”, the reducing thermal hyperalgesia [2] was “reduced thermal hyperalgesia” and the reducing mechanical allodynia [3] was “significantly improved mechanical allodynia”.
